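Cells were grown in 96-well plates and exposed to each compound for 48 hours at five concentrations; endpoints were interpolated linearly between bracketing concentrations, or set to the highest concentration if not reached. GI50 marks 50% less growth.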 The source made the active and inactive calls. Cut-off read from the data, not from the text of the source: active = GI50 up to about 1.1 µM and inactive = higher.
Tests used:
Experiment in all cases: NCI tumour cell line growth inhibition, 48 h
OVCAR-3 = test system: OVCAR-3
ACHN = test system: ACHN
UACC-257 = test system: UACC-257
HOP-92 = test system: HOP-92
U-251 = test system: U-251
HOP-62 = test system: HOP-62
EKVX = test system: EKVX
SW-620 = test system: SW-620
OVCAR-5 = test system: OVCAR-5
UACC-62 = test system: UACC-62
CAKI-1 = test system: CAKI-1
HT-29 = test system: HT-29
HL-60 = test system: HL-60
A498 = test system: A498
MDA-MB-435 = test system: MDA-MB-435
786-0 = test system: 786-0
SK-MEL-28 = test system: SK-MEL-28
MDA-N = test system: MDA-N
M14 = test system: M14
SK-MEL-5 = test system: SK-MEL-5
SF-268 = test system: SF-268
SK-MEL-2 = test system: SK-MEL-2
Malme-3M = test system: Malme-3M
KM12 = test system: KM12
NCI-H460 = test system: NCI-H460
NCI-H522 = test system: NCI-H522
MCF7 = test system: MCF7
Hs-578T = test system: Hs-578T
A549 = test system: A549
HCT-116 = test system: HCT-116
SN12C = test system: SN12C
LOX IMVI = test system: LOX IMVI
BT-549 = test system: BT-549
NCI-H23 = test system: NCI-H23
TK-10 = test system: TK-10
SK-OV-3 = test system: SK-OV-3
IGROV-1 = test system: IGROV-1
HCC 2998 = test system: HCC 2998
MOLT-4 = test system: MOLT-4
MDA-MB-231 = test system: MDA-MB-231
RXF 393 = test system: RXF 393
NCI/ADR-RES = test system: NCI/ADR-RES
OVCAR-4 = test system: OVCAR-4
SF-539 = test system: SF-539
RPMI-8226 = test system: RPMI-8226
SNB-19 = test system: SNB-19
DU-145 = test system: DU-145
SF-295 = test system: SF-295
CCRF-CEM = test system: CCRF-CEM
OVCAR-8 = test system: OVCAR-8
HCT-15 = test system: HCT-15
T47D = test system: T47D
PC-3 = test system: PC-3
COLO 205 = test system: COLO 205
K562 = test system: K562
UO-31 = test system: UO-31
NCI-H226 = test system: NCI-H226
SR = test system: SR
SNB-75 = test system: SNB-75

SMILES: CCOC(=O)[C@@]12NN=N[C@@H]1[C@H]1CO[C@H](c3ccccc3)N1C2=O
- GI50 (OVCAR-3): 8.53 µM (inactive)
- GI50 (ACHN): 13.4 µM (inactive)
- GI50 (UACC-257): 6.44 µM (inactive)
- GI50 (HOP-92): 1.64 µM (inactive)
- GI50 (U-251): 4.54 µM (inactive)
- GI50 (HOP-62): 14.5 µM (inactive)
- GI50 (EKVX): 13.9 µM (inactive)
- GI50 (SW-620): 7.67 µM (inactive)
- GI50 (OVCAR-5): 14.2 µM (inactive)
- GI50 (UACC-62): 7.6 µM (inactive)
- GI50 (CAKI-1): 11 µM (inactive)
- GI50 (HT-29): 13.5 µM (inactive)
- GI50 (HL-60): 17.3 µM (inactive)
- GI50 (A498): 10.6 µM (inactive)
- GI50 (MDA-MB-435): 11.1 µM (inactive)
- GI50 (786-0): 5.97 µM (inactive)
- GI50 (SK-MEL-28): 5.25 µM (inactive)
- GI50 (MDA-N): 11.1 µM (inactive)
- GI50 (M14): 6.18 µM (inactive)
- GI50 (SK-MEL-5): 11.1 µM (inactive)
- GI50 (SF-268): 11 µM (inactive)
- GI50 (SK-MEL-2): 7.21 µM (inactive)
- GI50 (Malme-3M): 13.3 µM (inactive)
- GI50 (KM12): 13.1 µM (inactive)
- GI50 (NCI-H460): 4.44 µM (inactive)
- GI50 (NCI-H522): 3.01 µM (inactive)
- GI50 (MCF7): 6.34 µM (inactive)
- GI50 (Hs-578T): 4.6 µM (inactive)
- GI50 (A549): 16.9 µM (inactive)
- GI50 (HCT-116): 15 µM (inactive)
- GI50 (SN12C): 11.1 µM (inactive)
- GI50 (LOX IMVI): 2.18 µM (inactive)
- GI50 (BT-549): 11.7 µM (inactive)
- GI50 (NCI-H23): 12.5 µM (inactive)
- GI50 (TK-10): 16.8 µM (inactive)
- GI50 (SK-OV-3): 18.2 µM (inactive)
- GI50 (IGROV-1): 5.24 µM (inactive)
- GI50 (HCC 2998): 12.9 µM (inactive)
- GI50 (MOLT-4): 5.33 µM (inactive)
- GI50 (MDA-MB-231): 12.2 µM (inactive)
- GI50 (RXF 393): 3.58 µM (inactive)
- GI50 (NCI/ADR-RES): 22.1 µM (inactive)
- GI50 (OVCAR-4): 16.5 µM (inactive)
- GI50 (SF-539): 11.2 µM (inactive)
- GI50 (RPMI-8226): 3.24 µM (inactive)
- GI50 (SNB-19): 10.2 µM (inactive)
- GI50 (DU-145): 13.8 µM (inactive)
- GI50 (SF-295): 11.6 µM (inactive)
- GI50 (CCRF-CEM): 7.1 µM (inactive)
- GI50 (OVCAR-8): 5.68 µM (inactive)
- GI50 (HCT-15): 6.62 µM
- GI50 (T47D): 5.22 µM (inactive)
- GI50 (PC-3): 10.1 µM (inactive)
- GI50 (COLO 205): 10.2 µM (inactive)

SMILES: COC(=O)c1c(C#N)c(N)nc2c1CCC2
- GI50 (ACHN): > 100 µM (inactive)
- GI50 (UACC-257): > 100 µM (inactive)
- GI50 (HOP-92): > 100 µM (inactive)
- GI50 (U-251): > 100 µM (inactive)
- GI50 (HOP-62): > 100 µM (inactive)
- GI50 (EKVX): > 100 µM (inactive)
- GI50 (SW-620): > 100 µM (inactive)
- GI50 (OVCAR-5): > 100 µM (inactive)
- GI50 (UACC-62): > 100 µM (inactive)
- GI50 (CAKI-1): > 100 µM (inactive)
- GI50 (HT-29): > 100 µM (inactive)
- GI50 (HL-60): > 100 µM (inactive)
- GI50 (A498): > 100 µM (inactive)
- GI50 (MDA-MB-435): > 100 µM (inactive)
- GI50 (786-0): > 100 µM (inactive)
- GI50 (SK-MEL-28): > 100 µM (inactive)
- GI50 (MDA-N): > 100 µM (inactive)
- GI50 (K562): > 100 µM (inactive)
- GI50 (M14): > 100 µM (inactive)
- GI50 (SK-MEL-5): > 100 µM (inactive)
- GI50 (SF-268): > 100 µM (inactive)
- GI50 (SK-MEL-2): > 100 µM (inactive)
- GI50 (Malme-3M): > 100 µM (inactive)
- GI50 (KM12): > 100 µM (inactive)
- GI50 (NCI-H460): > 100 µM (inactive)
- GI50 (NCI-H522): > 100 µM (inactive)
- GI50 (MCF7): > 100 µM (inactive)
- GI50 (Hs-578T): 70 µM (inactive)
- GI50 (A549): > 100 µM (inactive)
- GI50 (HCT-116): > 100 µM (inactive)
- GI50 (SN12C): > 100 µM (inactive)
- GI50 (UO-31): 69.7 µM (inactive)
- GI50 (LOX IMVI): > 100 µM (inactive)
- GI50 (BT-549): > 100 µM (inactive)
- GI50 (NCI-H23): > 100 µM (inactive)
- GI50 (NCI-H226): > 100 µM (inactive)
- GI50 (TK-10): > 100 µM (inactive)
- GI50 (SK-OV-3): > 100 µM (inactive)
- GI50 (IGROV-1): > 100 µM (inactive)
- GI50 (HCC 2998): > 100 µM (inactive)
- GI50 (MOLT-4): > 100 µM (inactive)
- GI50 (MDA-MB-231): > 100 µM (inactive)
- GI50 (RXF 393): > 100 µM (inactive)
- GI50 (NCI/ADR-RES): > 100 µM (inactive)
- GI50 (OVCAR-4): 93.3 µM (inactive)
- GI50 (RPMI-8226): > 100 µM (inactive)
- GI50 (SNB-19): > 100 µM (inactive)
- GI50 (DU-145): > 100 µM (inactive)
- GI50 (SF-295): > 100 µM (inactive)
- GI50 (CCRF-CEM): 99.8 µM (inactive)
- GI50 (OVCAR-8): > 100 µM (inactive)
- GI50 (HCT-15): > 100 µM
- GI50 (T47D): 75.5 µM (inactive)
- GI50 (PC-3): > 100 µM (inactive)
- GI50 (COLO 205): > 100 µM (inactive)

SMILES: COc1cc(C(=O)O)c(-c2cc3c(cc2C=O)OCO3)c(OC)c1OC
- GI50 (OVCAR-3): > 10 µM (inactive)
- GI50 (ACHN): > 10 µM (inactive)
- GI50 (UACC-257): > 10 µM (inactive)
- GI50 (HOP-92): > 10 µM (inactive)
- GI50 (U-251): > 10 µM (inactive)
- GI50 (HOP-62): > 10 µM (inactive)
- GI50 (SW-620): > 10 µM (inactive)
- GI50 (UACC-62): > 10 µM (inactive)
- GI50 (CAKI-1): > 10 µM (inactive)
- GI50 (HT-29): > 10 µM (inactive)
- GI50 (HL-60): > 10 µM (inactive)
- GI50 (MDA-MB-435): > 10 µM (inactive)
- GI50 (786-0): > 10 µM (inactive)
- GI50 (SK-MEL-28): > 10 µM (inactive)
- GI50 (MDA-N): > 10 µM (inactive)
- GI50 (K562): > 10 µM (inactive)
- GI50 (M14): > 10 µM (inactive)
- GI50 (SK-MEL-5): > 10 µM (inactive)
- GI50 (SF-268): > 10 µM (inactive)
- GI50 (SR): > 10 µM (inactive)
- GI50 (Malme-3M): > 10 µM (inactive)
- GI50 (KM12): > 10 µM (inactive)
- GI50 (NCI-H522): > 10 µM (inactive)
- GI50 (MCF7): > 10 µM (inactive)
- GI50 (Hs-578T): > 10 µM (inactive)
- GI50 (A549): > 10 µM (inactive)
- GI50 (HCT-116): > 10 µM (inactive)
- GI50 (SN12C): > 10 µM (inactive)
- GI50 (LOX IMVI): > 10 µM (inactive)
- GI50 (BT-549): > 10 µM (inactive)
- GI50 (NCI-H23): > 10 µM (inactive)
- GI50 (TK-10): > 10 µM (inactive)
- GI50 (SK-OV-3): > 10 µM (inactive)
- GI50 (IGROV-1): > 10 µM (inactive)
- GI50 (HCC 2998): > 10 µM (inactive)
- GI50 (MOLT-4): > 10 µM (inactive)
- GI50 (MDA-MB-231): > 10 µM (inactive)
- GI50 (NCI/ADR-RES): > 10 µM (inactive)
- GI50 (OVCAR-4): > 10 µM (inactive)
- GI50 (SF-539): > 10 µM (inactive)
- GI50 (SNB-75): > 10 µM (inactive)
- GI50 (RPMI-8226): > 10 µM (inactive)
- GI50 (SNB-19): > 10 µM (inactive)
- GI50 (DU-145): > 10 µM (inactive)
- GI50 (SF-295): 4.82 µM (inactive)
- GI50 (CCRF-CEM): > 10 µM (inactive)
- GI50 (OVCAR-8): > 10 µM (inactive)
- GI50 (HCT-15): > 10 µM
- GI50 (T47D): > 10 µM (inactive)
- GI50 (PC-3): > 10 µM (inactive)
- GI50 (COLO 205): > 10 µM (inactive)

From ChEMBL document CHEMBL1201862, “PubChem BioAssay data set” (2004)
